Measurements taken from US8883782B2, “Spiro-tetracyclic ring compounds as beta-secretase modulators and methods of use” (Amgen Inc., priority 2010, dated 2014).

What was measured:
[1] = biological target: Beta Secretase enzyme (BACE) (Homo sapiens, UniProt P56817); assay: In vitro enzymatic BACE FRET (fluorescence resonance energy transfer) assay; format: biochemical; conditions: average IC50, enzyme assay; read-out: BACE 1 FRET assay
Procedure, shortened: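 Enzyme activity was measured at pH 4.2 (0.05 M acetate, 10% DMSO final, 100 uM genapol) by cleavage of a 50 nM quenched fluorogenic peptide. After one hour, Tris was added to neutralise the pH and fluorescence was recorded.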

[2] = test system: Aβ40 in conditioned medium of cells stably expressing Amyloid Precursor Protein (APP); assay: In vitro BACE cell-based assay (Aβ40 in conditioned medium, sandwich ELISA); conditions: Homo sapiens, HEK293, average IC50; read-out: HEK cell assay
Procedure, shortened: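 The sandwich ELISA pairs pAb40 capture (3 h, 4 °C) with 6E10 detection (2 h, 4 °C) and a streptavidin-europium TRF read-out. Supernatants come from APP-expressing cells grown in 10% FBS DMEM.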

Chain of Beta Secretase enzyme (BACE) (P56817 46-501, species assumed): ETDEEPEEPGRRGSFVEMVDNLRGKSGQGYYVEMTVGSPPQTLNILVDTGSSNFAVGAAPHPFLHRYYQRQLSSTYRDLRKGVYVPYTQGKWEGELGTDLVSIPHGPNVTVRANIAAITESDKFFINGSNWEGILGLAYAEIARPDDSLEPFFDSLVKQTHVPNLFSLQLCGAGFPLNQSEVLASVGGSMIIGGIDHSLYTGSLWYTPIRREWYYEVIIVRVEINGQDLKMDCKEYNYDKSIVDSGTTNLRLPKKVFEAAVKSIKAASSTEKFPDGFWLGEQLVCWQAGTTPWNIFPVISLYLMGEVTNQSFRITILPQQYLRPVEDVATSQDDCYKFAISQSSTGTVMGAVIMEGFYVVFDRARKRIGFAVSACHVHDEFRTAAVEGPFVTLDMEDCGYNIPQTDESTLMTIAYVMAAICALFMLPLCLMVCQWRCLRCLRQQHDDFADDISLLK

| Compound | IC50 [1] | IC50 [2] |
| --- | --- | --- |
| CC(C)(C)C#Cc1cnc2c(c1)[C@@]1(COC(N)=N1)c1cc(-c3cncnc3)c(F)cc1O2 [Example 338, (5R)-3-(3,3-dimethyl-1-butyn-1-yl)-8-fluoro-7-(5-pyrimidinyl)spiro[chromeno[2,3-b]pyridine-5,4′-[1,3]oxazol]-2′-amine] | 213 nM | 1240 nM |
| CC1(C#Cc2cnc3c(c2)[C@@]2(COC(N)=N2)c2c(ccc(-c4cccnc4F)c2F)O3)COC1 [Example 341, (5S)-6-fluoro-7-(2-fluoro-3-pyridinyl)-3-((3-methyl-3-oxetanyl)ethynyl)spiro[chromeno[2,3-b]pyridine-5,4′-[1,3]oxazol]-2′-amine] | 154 nM | 566 nM |
| CC1(C#Cc2cnc3c(c2)[C@]2(COC(N)=N2)c2c(ccc(-c4ccc(F)nc4)c2F)O3)COC1 [Example 342, (5R)-6-fluoro-7-(6-fluoro-3-pyridinyl)-3-((3-methyl-3-oxetanyl)ethynyl)spiro[chromeno[2,3-b]pyridine-5,4′-[1,3]oxazol]-2′-amine] | 2.4 nM | 16 nM |
| CC1(C#Cc2cnc3c(c2)[C@]2(COC(N)=N2)c2c(ccc(-c4cncnc4)c2F)O3)COC1 [Example 344, (5R)-6-fluoro-3-((3-methyl-3-oxetanyl)ethynyl)-7-(5-pyrimidinyl)spiro[chromeno[2,3-b]pyridine-5,4′-[1,3]oxazol]-2′-amine] | 1 nM | 6.5 nM |
| NC1=N[C@]2(CO1)c1cc(C3=CCOCC3)cnc1Oc1ccc(-c3cccnc3F)c(F)c12 [Example 346, (5R)-3-(3,6-dihydro-2H-pyran-4-yl)-6-fluoro-7-(2-fluoro-3-pyridinyl)spiro[chromeno[2,3-b]pyridine-5,4′-[1,3]oxazol]-2′-amine] | 0.8 nM | 6.7 nM |
| NC1=N[C@@]2(CO1)c1cc(C3=CCOCC3)cnc1Oc1ccc(-c3cccnc3F)c(F)c12 [Example 347, (5S)-3-(3,6-dihydro-2H-pyran-4-yl)-6-fluoro-7-(2-fluoro-3-pyridinyl)spiro[chromeno[2,3-b]pyridine-5,4′-[1,3]oxazol]-2′-amine] | 356 nM | 457 nM |
| CC1(C)C=C(c2cnc3c(c2)[C@]2(COC(N)=N2)c2c(ccc(-c4cccnc4F)c2F)O3)CCO1 [Example 348, (5R)-3-(6,6-dimethyl-3,6-dihydro-2H-pyran-4-yl)-6-fluoro-7-(2-fluoro-3-pyridinyl)spiro[chromeno[2,3-b]pyridine-5,4′-[1,3]oxazol]-2′-amine] | 0.8 nM | 8.8 nM |
| CC1(C)C=C(c2cnc3c(c2)[C@]2(COC(N)=N2)c2c(ccc(-c4cncnc4)c2F)O3)CCO1 [Example 352, (5R)-3-(6,6-dimethyl-3,6-dihydro-2H-pyran-4-yl)-6-fluoro-7-(5-pyrimidinyl)spiro[chromeno[2,3-b]pyridine-5,4′-[1,3]oxazol]-2′-amine] | 2.8 nM | 19.4 nM |
| CC1(C)C=C(c2cnc3c(c2)[C@@]2(COC(N)=N2)c2c(ccc(-c4cncnc4)c2F)O3)CCO1 [Example 354, (5S)-3-(6,6-dimethyl-3,6-dihydro-2H-pyran-4-yl)-6-fluoro-7-(5-pyrimidinyl)spiro[chromeno[2,3-b]pyridine-5,4′-[1,3]oxazol]-2′-amine] | 91.8 nM | 342 nM |
| CC1(C)CC(c2cnc3c(c2)[C@@]2(COC(N)=N2)c2c(ccc(-c4cncnc4)c2F)O3)=CCO1 [Example 355, (5S)-3-(2,2-dimethyl-3,6-dihydro-2H-pyran-4-yl)-6-fluoro-7-(5-pyrimidinyl)spiro[chromeno[2,3-b]pyridine-5,4′-[1,3]oxazol]-2′-amine] | 407 nM | 1280 nM |
| NC1=N[C@@]2(CO1)c1cc(-c3cnccc3F)ccc1Oc1ncc(C3=CCOCC3)cc12 [Example 358, (5S)-3-(3,6-dihydro-2H-pyran-4-yl)-7-(4-fluoro-3-pyridinyl)spiro[chromeno[2,3-b]pyridine-5,4′-[1,3]oxazol]-2′-amine] | 2.6 nM | 24.6 nM |
| NC1=N[C@@]2(CO1)c1cc(-c3cc(Cl)cnc3F)ccc1Oc1cnc(C3=CCOCC3)cc12 [Example 361, (5S)-7-(5-chloro-2-fluoro-3-pyridinyl)-3-(3,6-dihydro-2H-pyran-4-yl)spiro[chromeno[2,3-c]pyridine-5,4′-[1,3]oxazol]-2′-amine] | 0.5 nM | 6.1 nM |
| Cc1cc(-c2cc3c(cn2)Oc2ccc(-c4cccnc4F)cc2[C@@]32COC(N)=N2)on1 [Example 364, (5S)-7-(2-fluoro-3-pyridinyl)-3-(3-methyl-5-isoxazolyl)spiro[chromeno[2,3-c]pyridine-5,4′-[1,3]oxazol]-2′-amine] | 6.9 nM | 62.5 nM |

Continued by falling IC50 [1], values first:

| IC50 [1] | IC50 [2] | Compound |
| --- | --- | --- |
| 1050 nM | 2130 nM | Cn1cc(-c2cnc3c(c2)[C@@]2(COC(N)=N2)c2c(ccc(-c4cccnc4F)c2F)O3)cn1 [Example 357, (5S)-6-fluoro-7-(2-fluoro-3-pyridinyl)-3-(1-methyl-1H-pyrazol-4-yl)spiro[chromeno[2,3-b]pyridine-5,4′-[1,3]oxazol]-2′-amine] |
| 530 nM | 685 nM | CC1(C)C=C(c2cnc3c(c2)[C@@]2(COC(N)=N2)c2c(ccc(-c4cccnc4F)c2F)O3)CCO1 [Example 350, (5S)-3-(6,6-dimethyl-3,6-dihydro-2H-pyran-4-yl)-6-fluoro-7-(2-fluoro-3-pyridinyl)spiro[chromeno[2,3-b]pyridine-5,4′-[1,3]oxazol]-2′-amine] |
| 391 nM | 1840 nM | CC1(C#Cc2cnc3c(c2)[C@@]2(COC(N)=N2)c2c(ccc(-c4ccc(F)nc4)c2F)O3)COC1 [Example 343, (5S)-6-fluoro-7-(6-fluoro-3-pyridinyl)-3-((3-methyl-3-oxetanyl)ethynyl)spiro[chromeno[2,3-b]pyridine-5,4′-[1,3]oxazol]-2′-amine] |
| 389 nM | 854 nM | CC1(C)CC(c2cnc3c(c2)[C@@]2(COC(N)=N2)c2c(ccc(-c4cccnc4F)c2F)O3)=CCO1 [Example 351, (5S)-3-(2,2-dimethyl-3,6-dihydro-2H-pyran-4-yl)-6-fluoro-7-(2-fluoro-3-pyridinyl)spiro[chromeno[2,3-b]pyridine-5,4′-[1,3]oxazol]-2′-amine] |
| 94 nM | 650 nM | CC1(C#Cc2cnc3c(c2)[C@@]2(COC(N)=N2)c2c(ccc(-c4cncnc4)c2F)O3)COC1 [Example 345, (5S)-6-fluoro-3-((3-methyl-3-oxetanyl)ethynyl)-7-(5-pyrimidinyl)spiro[chromeno[2,3-b]pyridine-5,4′-[1,3]oxazol]-2′-amine] |
| 80.1 nM | 361 nM | Cc1cc(-c2cc3c(cn2)Oc2ccc(-c4ccccc4)cc2[C@@]32COC(N)=N2)on1 [Example 366, (5S)-3-(3-methyl-5-isoxazolyl)-7-phenylspiro[chromeno[2,3-c]pyridine-5,4′-[1,3]oxazol]-2′-amine] |
| 33.7 nM | 270 nM | NC1=N[C@@]2(CO1)c1cc(-c3ccc(F)nc3)ccc1Oc1cnc(C3CCOCC3)cc12 [Example 363, (5S)-7-(6-fluoro-3-pyridinyl)-3-(tetrahydro-2H-pyran-4-yl)spiro[chromeno[2,3-c]pyridine-5,4′-[1,3]oxazol]-2′-amine] |
| 13.3 nM | 74 nM | Cn1cc(-c2cc3c(cn2)Oc2ccc(-c4ccccc4)cc2[C@@]32COC(N)=N2)cn1 [Example 367, (5S)-3-(1-methyl-1H-pyrazol-4-yl)-7-phenylspiro[chromeno[2,3-c]pyridine-5,4′-[1,3]oxazol]-2′-amine] |
| 10.8 nM | 42.4 nM | Cn1cc(-c2cc3c(cn2)Oc2ccc(-c4ccc(F)nc4)cc2[C@@]32COC(N)=N2)cn1 [Example 365, (5S)-7-(6-fluoro-3-pyridinyl)-3-(1-methyl-1H-pyrazol-4-yl)spiro[chromeno[2,3-c]pyridine-5,4′-[1,3]oxazol]-2′-amine] |
| 6.3 nM | 114 nM | NC1=N[C@@]2(CO1)c1cc(-c3cc(C4=CCOCC4)cnc3F)ccc1Oc1cnc(C3=CCOCC3)cc12 [Example 362, (5S)-3-(3,6-dihydro-2H-pyran-4-yl)-7-(5-(3,6-dihydro-2H-pyran-4-yl)-2-fluoro-3-pyridinyl)spiro[chromeno[2,3-c]pyridine-5,4′-[1,3]oxazol]-2′-amine] |
| 2.9 nM | 22.4 nM | CC1(COc2cc3c(cc2F)Oc2ccc(-c4cccnc4F)cc2[C@@]32COC(N)=N2)COC1 [Example 360, (4S)-3′-fluoro-7′-(2-fluoro-3-pyridinyl)-2′-((3-methyl-3-oxetanyl)methoxy)spiro[1,3-oxazole-4,9′-xanthen]-2-amine] |
| 1.2 nM | 15.8 nM | CC1(C)CC(c2cnc3c(c2)[C@]2(COC(N)=N2)c2c(ccc(-c4cncnc4)c2F)O3)=CCO1 [Example 353, (5R)-3-(2,2-dimethyl-3,6-dihydro-2H-pyran-4-yl)-6-fluoro-7-(5-pyrimidinyl)spiro[chromeno[2,3-b]pyridine-5,4′-[1,3]oxazol]-2′-amine] |
| 0.9 nM | 13.9 nM | Cn1cc(-c2cnc3c(c2)[C@]2(COC(N)=N2)c2c(ccc(-c4cccnc4F)c2F)O3)cn1 [Example 356, (5R)-6-fluoro-7-(2-fluoro-3-pyridinyl)-3-(1-methyl-1H-pyrazol-4-yl)spiro[chromeno[2,3-b]pyridine-5,4′-[1,3]oxazol]-2′-amine] |
| 0.7 nM | 8 nM | CC1(C)CC(c2cnc3c(c2)[C@]2(COC(N)=N2)c2c(ccc(-c4cccnc4F)c2F)O3)=CCO1 [Example 349, (5R)-3-(2,2-dimethyl-3,6-dihydro-2H-pyran-4-yl)-6-fluoro-7-(2-fluoro-3-pyridinyl)spiro[chromeno[2,3-b]pyridine-5,4′-[1,3]oxazol]-2′-amine] |
